Read-outs that look alike come from different tables or passages of the source. Bridge positions count the residues as written; N and C are the ends. Square brackets hold non-standard residues; d marks the D form. Peptide text beside a SMILES is read from it. d2Nal = N[C@H](Cc1ccc2ccccc2c1)C(=O)O; Bta = N[C@@H](Cc1csc2ccccc12)C(=O)O; βAla = NCCC(=O)O
Key:
Assay in all cases: cyclic AMP bioassay (ECL) in CHO-K1 cells
Type in all cases: cell-based
hMC4-R = biological target: T1, hMC4-R (Homo sapiens, UniProt P32245)
T1 construct: expressed in transfected cells; host or cells: CHO-K1
T1 sequence (P32245 whole entry): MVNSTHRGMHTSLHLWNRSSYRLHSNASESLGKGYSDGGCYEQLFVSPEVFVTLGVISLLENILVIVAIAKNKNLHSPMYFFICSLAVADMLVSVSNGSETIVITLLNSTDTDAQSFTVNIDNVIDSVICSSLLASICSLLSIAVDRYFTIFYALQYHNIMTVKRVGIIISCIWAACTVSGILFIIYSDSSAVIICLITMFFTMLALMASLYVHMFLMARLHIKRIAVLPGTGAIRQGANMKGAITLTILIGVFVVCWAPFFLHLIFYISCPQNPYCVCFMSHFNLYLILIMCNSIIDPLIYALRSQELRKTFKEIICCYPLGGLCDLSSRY

hMC3-R = biological target: T2, hMC3-R (Homo sapiens, UniProt P41968)
T2 construct: expressed in transfected cells; host or cells: CHO-K1
T2 sequence (P41968 whole entry): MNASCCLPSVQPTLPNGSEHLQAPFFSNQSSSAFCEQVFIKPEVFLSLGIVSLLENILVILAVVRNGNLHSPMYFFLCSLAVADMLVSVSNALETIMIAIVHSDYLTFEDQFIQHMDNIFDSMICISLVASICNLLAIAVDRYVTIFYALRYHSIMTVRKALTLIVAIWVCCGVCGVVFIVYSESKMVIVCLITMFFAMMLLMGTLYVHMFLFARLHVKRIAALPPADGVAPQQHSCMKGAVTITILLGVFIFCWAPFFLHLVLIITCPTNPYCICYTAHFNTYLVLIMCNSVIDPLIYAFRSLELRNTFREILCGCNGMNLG

hMC1-R = biological target: T3, hMC1-R (Homo sapiens, UniProt Q01726)
T3 construct: expressed in transfected cells; host or cells: CHO-K1
T3 sequence (Q01726 whole entry): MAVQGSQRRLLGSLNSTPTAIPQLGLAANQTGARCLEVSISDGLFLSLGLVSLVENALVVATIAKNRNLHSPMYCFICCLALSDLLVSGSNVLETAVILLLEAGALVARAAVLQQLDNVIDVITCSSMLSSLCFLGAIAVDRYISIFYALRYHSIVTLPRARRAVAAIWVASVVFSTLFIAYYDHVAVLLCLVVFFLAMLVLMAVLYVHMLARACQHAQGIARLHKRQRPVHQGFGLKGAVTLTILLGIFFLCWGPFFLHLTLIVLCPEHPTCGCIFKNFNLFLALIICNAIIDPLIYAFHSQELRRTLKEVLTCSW

hMC5-R = biological target: T4, hMC5-R (Homo sapiens, UniProt P33032)
T4 construct: expressed in transfected cells; host or cells: CHO-K1
T4 sequence (P33032 whole entry): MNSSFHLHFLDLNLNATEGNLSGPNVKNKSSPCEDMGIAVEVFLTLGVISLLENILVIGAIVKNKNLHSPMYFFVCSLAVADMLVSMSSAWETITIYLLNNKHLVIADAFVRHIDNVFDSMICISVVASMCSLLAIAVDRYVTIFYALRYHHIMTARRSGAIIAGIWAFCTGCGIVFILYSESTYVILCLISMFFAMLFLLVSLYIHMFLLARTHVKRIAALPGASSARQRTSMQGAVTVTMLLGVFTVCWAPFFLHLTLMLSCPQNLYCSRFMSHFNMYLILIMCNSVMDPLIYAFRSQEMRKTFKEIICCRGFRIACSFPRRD

Compound `CC(=O)N[C@H]1CSSC[C@@H](C(=O)N2CCC[C@H]2C(=O)N2CCC[C@H]2C(=O)N[C@@H](CCCCN)C(=O)N[C@@H](CC(=O)O)C(=O)NCCC(=O)N[C@@H](Cc2ccc(O)cc2)C(=O)NCC(=O)N[C@@H](CCCNC(=N)N)C(=O)N[C@@H](CCCNC(=N)N)C(=O)N[C@@H](CCCCN)C(=O)N[C@@H](CCCNC(=N)N)C(=O)N[C@@H](CCCNC(=N)N)C(=O)N[C@@H](CCC(N)=O)C(=O)N[C@@H](CCCNC(=N)N)C(=O)N[C@@H](CCCNC(=N)N)C(=O)N[C@@H](CCCNC(=N)N)C(N)=O)NC(=O)[C@H](C)NC(=O)[C@H](Cc2csc3ccccc23)NC(=O)[C@H](CCCNC(=N)N)NC(=O)[C@@H](Cc2ccc3ccccc3c2)NC(=O)[C@H](Cc2c[nH]cn2)NC(=O)[C@H](CCC(=O)O)NC1=O` has a Kb (hMC4-R) of 8.43 nM, a Kb (hMC3-R) of 37.8 nM and an EC50 (hMC1-R) of 19.8 nM. It also gave an EC50 (hMC5-R) of 158 nM.
`CC(=O)N[C@H]1CSSC[C@@H](C(=O)N2CCC[C@H]2C(=O)N2CCC[C@H]2C(=O)N[C@@H](CCCCN)C(=O)N[C@@H](CC(=O)O)C(=O)NCCC(=O)NCC(=O)N[C@@H](CCCNC(=N)N)C(=O)N[C@@H](CCCNC(=N)N)C(=O)N[C@@H](CCCCN)C(=O)N[C@@H](CCCNC(=N)N)C(=O)N[C@@H](CCCNC(=N)N)C(=O)N[C@@H](CCC(N)=O)C(=O)N[C@@H](CCCNC(=N)N)C(=O)N[C@@H](CCCNC(=N)N)C(=O)N[C@@H](CCCNC(=N)N)C(N)=O)NC(=O)[C@H](C)NC(=O)[C@H](Cc2csc3ccccc23)NC(=O)[C@H](CCCNC(=N)N)NC(=O)[C@@H](Cc2ccc3ccccc3c2)NC(=O)[C@H](Cc2c[nH]cn2)NC(=O)[C@H](CCC(=O)O)NC1=O` showed a Kb (hMC4-R) of 4.42 nM, a Kb (hMC3-R) of 93.6 nM and an EC50 (hMC1-R) of 33.8 nM. The EC50 (hMC5-R) was 89.5 nM.
`CC(=O)N[C@H]1CSSC[C@@H](C(=O)N2CCC[C@H]2C(=O)N2CCC[C@H]2C(=O)N[C@@H](CCCCN)C(=O)N[C@@H](CC(=O)O)C(=O)NCCC(=O)N[C@@H](CCCNC(=N)N)C(=O)N[C@@H](CCCNC(=N)N)C(=O)N[C@@H](CCCNC(=N)N)C(=O)N[C@@H](CCCNC(=N)N)C(=O)N[C@@H](CCCNC(=N)N)C(=O)N[C@@H](CCC(N)=O)C(=O)N[C@@H](CCCNC(=N)N)C(=O)N[C@@H](CCCNC(=N)N)C(=O)N[C@@H](CCCNC(=N)N)C(N)=O)NC(=O)[C@H](C)NC(=O)[C@H](Cc2csc3ccccc23)NC(=O)[C@H](CCCNC(=N)N)NC(=O)[C@@H](Cc2ccc3ccccc3c2)NC(=O)[C@H](Cc2c[nH]cn2)NC(=O)[C@H](CCC(=O)O)NC1=O` showed a Kb (hMC4-R) of 6.14 nM, a Kb (hMC3-R) of 170 nM and an EC50 (hMC1-R) of 52 nM. The EC50 (hMC5-R) was 328 nM.
In the case of `CC(=O)N[C@H]1CSSC[C@@H](C(=O)N2CCC[C@H]2C(=O)N2CCC[C@H]2C(=O)N[C@@H](CCCCN)C(=O)N[C@@H](CC(=O)O)C(=O)NCCC(=O)N[C@@H](Cc2ccc(O)cc2)C(=O)NC(C)(C)C(=O)N[C@@H](CCCNC(=N)N)C(=O)N[C@@H](CCCCN)C(=O)N[C@@H](CCCCN)C(=O)N[C@@H](CCCNC(=N)N)C(=O)N[C@@H](CCCNC(=N)N)C(=O)N[C@@H](CCC(N)=O)C(=O)N[C@@H](CCCNC(=N)N)C(=O)N[C@@H](CCCNC(=N)N)C(=O)N[C@@H](CCCNC(=N)N)C(N)=O)NC(=O)[C@H](C)NC(=O)[C@H](Cc2csc3ccccc23)NC(=O)[C@H](CCCNC(=N)N)NC(=O)[C@@H](Cc2ccc3ccccc3c2)NC(=O)[C@H](Cc2c[nH]cn2)NC(=O)[C@H](CCC(=O)O)NC1=O`, the Kb (hMC4-R; antagonist potency by Schild analysis, cAMP, CHO-K1 cells expressing hMC4-R, read-out: Kb hMC4-R) is reported as 46.5 nM, the Kb (hMC3-R; antagonist potency by Schild analysis, cAMP, CHO-K1 cells expressing hMC3-R, read-out: Kb hMC3-R) is reported as 439 nM and the EC50 (hMC1-R; cAMP, CHO-K1 cells expressing hMC1-R, read-out: EC50 hMC1-R) is reported as 67.1 nM. For the same compound, the EC50 (hMC5-R; cAMP, CHO-K1 cells expressing hMC5-R, read-out: EC50 hMC5-R) was 582 nM.
In the case of `CC(=O)N[C@H]1CSSC[C@@H](C(=O)N2CCC[C@H]2C(=O)N2CCC[C@H]2C(=O)N[C@@H](CCCCN)C(=O)N[C@@H](CC(=O)O)C(=O)NCCC(=O)N[C@@H](Cc2ccc(O)cc2)C(=O)NCC(=O)N[C@@H](CCCNC(=N)N)C(=O)N[C@@H](CCCNC(=N)N)C(=O)N[C@@H](CCCNC(=N)N)C(=O)N[C@@H](CCCNC(=N)N)C(=O)N[C@@H](CCCNC(=N)N)C(=O)N[C@@H](CCC(N)=O)C(=O)N[C@@H](CCCNC(=N)N)C(=O)N[C@@H](CCCNC(=N)N)C(=O)N[C@@H](CCCNC(=N)N)C(N)=O)NC(=O)[C@H](C)NC(=O)[C@H](Cc2csc3ccccc23)NC(=O)[C@H](CCCNC(=N)N)NC(=O)[C@@H](Cc2ccc3ccccc3c2)NC(=O)[C@H](Cc2c[nH]cn2)NC(=O)[C@H](CCC(=O)O)NC1=O` (Ac-CEH[d2Nal]R[Bta]ACPPKD[βAla]YGRRRRRQRRR-NH2; disulfide 1-8), the Kb (hMC4-R) is reported as 28.4 nM, the Kb (hMC3-R) is reported as 44.6 nM and the EC50 (hMC1-R) is reported as 114 nM. It also gave an EC50 (hMC5-R) of 879 nM.
With `CC(=O)N[C@H]1CSSC[C@@H](C(=O)N2CCC[C@H]2C(=O)N2CCC[C@H]2C(=O)N[C@@H](CCCNC(=N)N)C(=O)N[C@@H](CC(=O)O)C(=O)NCCC(=O)N[C@@H](CCCNC(=N)N)C(=O)N[C@@H](CCCNC(=N)N)C(=O)N[C@@H](CCCNC(=N)N)C(=O)N[C@@H](CCCNC(=N)N)C(=O)N[C@@H](CCCNC(=N)N)C(=O)N[C@@H](CCCNC(=N)N)C(=O)N[C@@H](CCC(N)=O)C(=O)N[C@@H](CCCNC(=N)N)C(=O)N[C@@H](CCCNC(=N)N)C(=O)N[C@@H](CCCNC(=N)N)C(N)=O)NC(=O)[C@H](C)NC(=O)[C@H](Cc2csc3ccccc23)NC(=O)[C@H](CCCNC(=N)N)NC(=O)[C@@H](Cc2ccc3ccccc3c2)NC(=O)[C@H](Cc2c[nH]cn2)NC(=O)[C@H](CCC(=O)O)NC1=O` (Ac-CEH[d2Nal]R[Bta]ACPPRD[βAla]RRRRRRQRRR-NH2; disulfide 1-8) the Kb (hMC4-R) was 19.4 nM, the Kb (hMC3-R) was 41.7 nM and the EC50 (hMC1-R) was 86.1 nM. It also gave an EC50 (hMC5-R) of 2360 nM.
For `CC(=O)N[C@@H](CCCNC(=N)N)C(=O)N[C@H]1CSSC[C@@H](C(N)=O)NC(=O)[C@H](Cc2c[nH]c3ccccc23)NC(=O)[C@H](CCCNC(=N)N)NC(=O)[C@@H](Cc2ccc3ccccc3c2)NC(=O)[C@H](Cc2c[nH]cn2)NC(=O)[C@@H](C)NC1=O` [Ac-Arg-c(Cys-D-Ala-His-D-2-Nal-Arg-Trp-Cys)-NH2], the Kb (hMC4-R) was 1.58 nM, the Kb (hMC3-R) was 5.72 nM and the EC50 (hMC1-R) was 193 nM. It also gave an EC50 (hMC5-R) of 1110 nM.
Compound `CC(=O)N[C@@H](CCCNC(=N)N)C(=O)N[C@H]1CSSC(C)(C)[C@@H](C(N)=O)NC(=O)[C@H](Cc2c[nH]c3ccccc23)NC(=O)[C@H](CCCNC(=N)N)NC(=O)[C@@H](Cc2ccccc2)NC(=O)[C@H](Cc2c[nH]cn2)NC(=O)[C@@H](C)NC1=O` [Ac-Arg-c(Cys-D-Ala-His-D-Phe-Arg-Trp-Pen)-NH2] has an EC50 (hMC4-R) of 0.79 nM, an EC50 (hMC3-R) of 13.3 nM and an EC50 (hMC1-R) of 48.3 nM. The EC50 (hMC5-R) was 10000 nM.
`CCCC[C@H](NC(C)=O)C(=O)N[C@H]1CC(=O)NCCCC[C@@H](C(N)=O)NC(=O)[C@H](C)NC(=O)[C@H](Cc2c[nH]c3ccccc23)NC(=O)[C@H](CCCNC(=N)N)NC(=O)[C@@H](Cc2ccc3ccccc3c2)NC(=O)[C@H](Cc2c[nH]cn2)NC1=O` [Ac-Nle-c(Asp-His-D-2-Nal-Arg-Trp-Ala-Lys)-NH2] showed an EC50 (hMC1-R; Table 9C/9D, read-out: EC50 hMC1-R) of 0.619 nM.
`CCCC[C@H](NC(C)=O)C(=O)N[C@@H]1C(=O)N[C@H](C)C(=O)N[C@@H](Cc2c[nH]cn2)C(=O)N[C@H](Cc2ccccc2)C(=O)N[C@@H](CCCNC(=N)N)C(=O)N[C@@H](Cc2c[nH]c3ccccc23)C(=O)N[C@H](C(N)=O)CSSC1(C)C` [Ac-Nle-c(Pen-D-Ala-His-D-Phe-Arg-Trp-Cys)-NH2] gave an EC50 (hMC4-R) of 0.531 nM and an EC50 (hMC3-R) of 1.89 nM.
`C[C@@H]1NC(=O)N(CC(=O)N[C@H]2CSSC[C@@H](C(N)=O)NC(=O)[C@H](Cc3c[nH]c4ccccc34)NC(=O)[C@H](CCCNC(=N)N)NC(=O)[C@@H](Cc3ccccc3)NC(=O)[C@H](Cc3cnc[nH]3)NC(=O)[C@@H](C)NC2=O)C1=O` [Hydantoin(C(O)-(Ala-Gly))-c(Cys-D-Ala-His-D-Phe-Arg-Trp-Cys)-NH2] showed an EC50 (hMC4-R) of 0.241 nM, an EC50 (hMC3-R) of 2.23 nM and an EC50 (hMC5-R) of 516 nM.
With `C[C@H]1NC(=O)[C@@H](NC(=O)CN2C(=O)N[C@@H](CCCNC(=N)N)C2=O)CSSC[C@@H](C(N)=O)NC(=O)[C@H](Cc2c[nH]c3ccccc23)NC(=O)[C@H](CCCNC(=N)N)NC(=O)[C@@H](Cc2ccccc2)NC(=O)[C@H](Cc2cnc[nH]2)NC1=O` [Hydantoin(C(O)-(Arg-Gly))-c(Cys-D-Ala-His-D-Phe-Arg-Trp-Cys)-NH2] the EC50 (hMC4-R) was 0.503 nM, the EC50 (hMC3-R) was 18.2 nM and the EC50 (hMC1-R) was 8.81 nM.
`C[C@H]1NC(=O)[C@@H](NC(=O)[C@H](CCCNC(=N)N)N2C(=O)CNC2=O)CSSC[C@@H](C(N)=O)NC(=O)[C@H](Cc2c[nH]c3ccccc23)NC(=O)[C@H](CCCNC(=N)N)NC(=O)[C@@H](Cc2ccccc2)NC(=O)[C@H](Cc2cnc[nH]2)NC1=O` [Hydantoin(C(O)-(Gly-Arg))-c(Cys-D-Ala-His-D-Phe-Arg-Trp-Cys)-NH2] was tested, and the EC50 (hMC4-R) was 0.599 nM, the EC50 (hMC3-R) was 5.17 nM and the EC50 (hMC1-R) was 8.85 nM.
`N=C(N)NCCC[C@@H]1NC(=O)[C@@H](Cc2ccccc2)NC(=O)[C@H](Cc2cnc[nH]2)NC(=O)[C@H](CCC(=O)O)NC(=O)[C@@H](NC(=O)CN2C(=O)CNC2=O)CSSC[C@@H](C(N)=O)NC(=O)[C@H](Cc2c[nH]c3ccccc23)NC1=O` [Hydantoin(C(O)-(Gly-Gly))-c(Cys-Glu-His-D-Phe-Arg-Trp-Cys)-NH2] gave an EC50 (hMC3-R; Table 11, read-out: EC50 hMC3) of 8.05 nM and an EC50 (hMC1-R; Table 11, read-out: EC50 hMC1) of 124 nM.
`CCCC[C@@H](C(=O)N[C@H]1CSSC[C@@H](C(N)=O)NC(=O)[C@H](Cc2c[nH]c3ccccc23)NC(=O)[C@H](CCCNC(=N)N)NC(=O)[C@@H](Cc2ccccc2)NC(=O)[C@H](Cc2cnc[nH]2)NC(=O)[C@@H](C)NC1=O)N1C(=O)N[C@@H](CC(C)C)C1=O` [Hydantoin(C(O)-(Leu-Nle))-c(Cys-D-Ala-His-D-Phe-Arg-Trp-Cys)-NH2] showed an EC50 (hMC4-R) of 1.83 nM and an EC50 (hMC3-R) of 9.68 nM.
With `CCCC[C@@H](C(=O)N[C@H]1CSSC[C@@H](C(N)=O)NC(=O)[C@H](Cc2c[nH]c3ccccc23)NC(=O)[C@H](CCCNC(=N)N)NC(=O)[C@@H](Cc2ccccc2)NC(=O)[C@H](Cc2cnc[nH]2)NC(=O)[C@@H](C)NC1=O)N1C(=O)N[C@@H](C(C)C)C1=O` [Hydantoin(C(O)-(Val-Nle))-c(Cys-D-Ala-His-D-Phe-Arg-Trp-Cys)-NH2] the EC50 (hMC4-R) was 0.977 nM and the EC50 (hMC3-R) was 4.61 nM.
